Source: patent US20140045809A1, “CORROLES FOR NEUROPROTECTION AND NEURORESCUE” (priority 2008, published 2014)
Like-named read-outs stand apart in the source and are kept apart here.

Columns and labels:
[1] = test system: clonal beta cell lines; experiment: Toxicity of corrole alone (without H2O2) on clonal beta cell lines; assay type: cell-based; settings: without H2O2, concentrations up to 50 μM
[2] = test system: INS-1E cells; experiment: Protection of INS-1E cells against SIN-1 toxicity (MTT); assay type: cell-based, rat; settings: 10 μM, 30 min before SIN-1 (500 or 600 μM), 24 h
Protocol: INS-1E cells or RIN-m cells were cultured in RPMI with low serum content (2% FCS), placed in microtiter plates (96 wells) at a density of 2.5×10^4 cells/well and allowed to attach for 24 h before treatment. Corroles 1C-Fe and 5C-Fe (10 μM) were added 30 min prior to insult with the nitric oxide donor SIN-1 (500 or 600 μM) for a subsequent 24 h period. Cell viability was evaluated by a colorimetric assay for mitochondrial function using 3-(4,5-dimethylthiazol-2-yl)-2,5-diphenyltetrazolium bromide (MTT test), and expressed as percentage of untreated control. Values higher than 100% reflect increased mitochondrial activity induced by the drug. The results represent the mean±SEM of three independent experiments performed under the same conditions.

[3] = test system: SH-SY5Y cells; assay type: cell-based
Protocol: Human neuroblastoma cell line was also examined under conditions similar to RIN-m cells to reveal the corrole's ability to prevent neuronal death caused by oxidative stress. SH-SY5Y cells were plated in microtiter plates (96 wells) in DMEM-Eagle/F-12(HAM) (1:1), containing 10% FCS. To examine neuroprotective effect, SH-SY5Y cells were treated for 30 min with corroles 1C-Fe and 5C-Fe (20 and 50 μM) before addition of 20 μM H2O2 for 24 h. To examine neurorescue, SH-SY5Y cells were first exposed to 20 μM H2O2 for 0.5 h, 1.5 h or 3 h, followed by the addition of corroles 1C-Fe and 5C-Fe (20 μM) and incubation for 24 h.
Compounds 1C-Fe and 1P-Fe (1-50 μM) were added 30 min before insult with H2O2 (200 μM), followed by a subsequent 24 h period. The neuroprotective effects of the iron corrole 1C-Fe and its structurally analogous iron porphyrin 1P-Fe, against H2O2-induced neurotoxicity were investigated using MTT reduction assay and cell death ELISA, based on the use of mouse monoclonal antibodies to detect free histones and fragmented DNA (F. Hollderieder et al, Biochemica 2002, 1, 25). […] In light of the observed neuroprotective effect of corrole 1C-Fe, we attempted to determine the length of the delay between H2O2 exposure and corrole 1C-Fe treatment that would still afford neuroprotection. H2O2 was administered to SH-SY5Y cells and corrole 1C-Fe was then added for 0.5-1.5 h thereafter. […]

[4] = Peroxynitrite decomposition rates by manganese corroles (Example 2); assay type: biochemical; settings: 385 μM peroxynitrite, pH 7.4, 25° C., absorbance at 302 nm; Table 2
Protocol: The investigations were performed by examining the decay of 385 μM peroxynitrite at pH 7.4 and 25° C. in the presence and absence of various amounts of Mn corrole catalysts 2C-Mn, 2C′-Mn, 2C″-Mn, 3C-Mn and 4C-Mn. The differences between 2C-Mn, 2C′-Mn, and 2C″-Mn is in the identity of the 10-aryl group, which is C6F5, para-anisyl, and phenyl, respectively. The results (one example using 4C-Mn is shown in FIG. 1) were obtained by monitoring changes in absorbance at 302 nm, the λmax of peroxynitrite. The catalytic performances of five of the above compounds were tested; and the thus elucidated kcat values are presented in Table 2. Importantly, in sharp contrast with the corroles, none of the structurally similar manganese (III) porphyrin complexes affected the decomposition of peroxynitrite by any extent (not shown).

[5] = molecular target: albumin (Homo sapiens, UniProt P02768); experiment: Binding of corrole complexes to albumin; settings: preliminary experiments
Sequence of albumin (P02768 25-609): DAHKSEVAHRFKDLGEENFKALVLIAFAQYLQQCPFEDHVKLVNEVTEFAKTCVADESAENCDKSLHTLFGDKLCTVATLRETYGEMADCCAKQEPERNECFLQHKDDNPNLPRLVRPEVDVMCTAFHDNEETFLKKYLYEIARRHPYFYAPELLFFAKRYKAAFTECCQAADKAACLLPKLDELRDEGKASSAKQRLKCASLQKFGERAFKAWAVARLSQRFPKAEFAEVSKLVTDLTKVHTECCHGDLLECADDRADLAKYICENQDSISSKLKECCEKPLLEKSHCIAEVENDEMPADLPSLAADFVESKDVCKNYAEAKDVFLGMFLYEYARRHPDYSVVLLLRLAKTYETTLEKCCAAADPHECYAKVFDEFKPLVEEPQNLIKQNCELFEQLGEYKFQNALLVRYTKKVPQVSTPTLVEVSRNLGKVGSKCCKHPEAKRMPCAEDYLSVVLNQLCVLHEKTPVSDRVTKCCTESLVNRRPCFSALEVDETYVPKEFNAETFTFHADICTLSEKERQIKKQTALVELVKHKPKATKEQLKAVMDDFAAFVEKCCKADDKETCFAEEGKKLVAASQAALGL
From the text: Issues regarding biodistribution, transport mechanisms, accumulation in specific organs, and the eventual elimination of administered compounds are among the prime concerns when it comes to real life utilization of potential drugs. This can be addressed by several and quite different means, including in vitro, in vivo and ex-vivo examinations. One way to predict distribution is via examination of the binding of the corroles to circulating proteins that might act as transporters, similar to experiment performed previously by the inventors with metal complexes of corrole 1C (Scheme 1), which spontaneously form tightly bound non-covalent bioconjugates with HDL (Haber et al., 2007), albumin (Mahammed et al., 2004), and transferrin (Haber and Gross. 2007) (listed in increasing order of affinity), as well as with semi-synthetic proteins (Agadjanian et al., 2006). […] A more direct approach relies on the strong fluorescence of corroles that are not chelated by transition metals (no metal such as in corroles 1C and 2C, or using corrole Ga/Al complexes such as 1C-Ga). This feature is used for testing cell entry via confocal microscopy (Agadjanian et al., 2006), without the need of attaching a fluorescent tag. Furthermore, it may even be used for whole animal imaging purposes, as shown in Example 4 hereinabove. […]

[6] = test system: SH-SY5Y cells; assay type: cell-based; settings: up to 50 μM; data not shown

O=S(=O)(O)c1cc2[n]3c1C(c1c(F)c(F)c(F)c(F)c1F)=C1C=CC4=[N+]1[Fe-]31[n]3c(cc(S(=O)(=O)O)c3-2)C(c2c(F)c(F)c(F)c(F)c2F)=c2ccc([n]21)=C4c1c(F)c(F)c(F)c(F)c1F (stereo not drawn) [1C-Fe, 2,17-bis(sulfonato)-5,10,15-tris(pentafluorophenyl)-corrolato iron(III)]
toxicity when given alone [1]: shows no toxicity | protective effect against SIN-1 induced toxicity (MTT) [2]: marked protective effect | neurorescue after H2O2 insult ([3]; 20 μM H2O2 for 0.5, 1.5 or 3 h, then 20 μM corrole, 24 h): instigated neurorescue | cell viability (MTT reduction) ([3]; 1-20 μM, 30 min before 200 μM H2O2, 24 h): dose-dependently increased cell viability | neuroprotective effect, corrole added after H2O2 ([3]; 1 and 1.5 h post-H2O2 insult, extent of protection gradually decreased): significantly protected | neuroprotective effect against H2O2-induced toxicity ([3]; 20 and 50 μM, 30 min before 20 μM H2O2, 24 h): dose-dependent neuroprotective effect | cell death (ELISA detection assay) ([3]; 30 min before 200 μM H2O2, 24 h): significantly and dose-dependently protected | neuroprotective effect, corrole added after H2O2 ([3]; 0.5 h post-H2O2 insult): remained unaltered | protection from H2O2-induced neurotoxicity compared with porphyrin ([3]; all concentrations studied (1-50 μM), 200 μM H2O2): displayed superiority over porphyrin 1P-Fe

C[n+]1ccc(C2=C3C=CC4=[N+]3[Mn-]35[n]6c2ccc6-c2ccc([n]23)C(c2cc[n+](C)cc2)=c2ccc([n]25)=C4c2c(F)c(F)c(F)c(F)c2F)cc1.[I-].[I-] (stereo not drawn) [2C-Mn, 5,15-bis(4-N-methyl-pyridilium)-10-pentafluorophenyl-corrolato manganese(III) diiodide salt]
kcat, peroxynitrite decomposition rate [4]: 150000 M⁻¹ s⁻¹ | binding to albumin [5]: do not bind to albumin | preventing H2O2-mediated cytotoxicity [6]: not effective
